Tests used:
Assay type in all cases: in vivo, rat
[1] = test system: interleukin-6 (IL-6); test: Colonic IL-6 (ELISA, colon homogenate); settings: TNBS-colitic rats, 7 days, mean ± SEM, n = 8
Description: (§1) The rats were food-deprived for a day, and colitis was induced as previously described (Wang et al., [2010]). Rats were anesthetized with ether and then a 5% TNBS (Sigma, St Louis, USA) (100 mg/kg) dissolved in 0.25 mL of 50% ethanol (v/v) (2:1) was administered by a polyethylene catheter introduced rectally to 6–8 cm from the anus. Rats were set in a head-down position for 30 seconds to avoid leakage of the solution (Lu et al., [2017]). Rats were randomly divided into seven groups (n = 8) including the normal control (NC) group, TNBS-colitic (positive control, PC) group, and five TNBS-colitic-treated groups which were orally given sulfasalazine (SSZ, 100 mg/kg/day, a reference treatment for IBD) (Yousefi-Ahmadipour et al., [2020]), low and high doses of OM (OML and OMH: 3.0 and 10.0 mg/kg/day (Nagib et al., [2013])) as a raw drug and as an OMS (OMSL and OMSH). OM was suspended in distilled water containing 0.25% carboxymethyl cellulose (Gorain et al., [2014]; Komesli et al., [2019]). The treatments were given for 7 days starting 4 hours after TNBS administration (Lu et al., [2017]). Rats were evaluated for the colitis activity score. […] The colon was excised, cleaned with ice-cold saline, measured for weight and length, and the macroscopic appearance was evaluated. Parts of the colon were homogenized and activities/levels of myeloperoxidase (MPO), tumor necrosis factor-α (TNF-α), interleukin-6 (IL-6), malondialdehyde (MDA), and reduced glutathione (GSH) were measured. The concentrations of olmesartan in plasma and colonic homogenate were measured by high performance liquid chromatography/mass spectrometry (HPLC/MS). […]
(§2) The colonic samples were homogenized using phosphate-buffered saline and a TissueLyser II (Qiagen) at 4 °C to yield a 10% homogenate. […] The colonic protein content was determined by using the Bradford method (Bradford, 1976). The activities and/or levels of MPO (a marker for neutrophil infiltration), TNF-α, IL-6, MDA, and GSH were measured using ELISA kits (MyBioSource, Inc. CA, USA) according to the manufacturer's guidelines and were expressed/mg protein.

[2] = test system: E-cadherin, Bax, Bcl-2, cleaved caspase-3; test: Western blot of colonic E-cadherin, Bax, Bcl-2 and cleaved caspase-3; settings: TNBS-colitic rats, 7 days
Description: (§3) The rats were food-deprived for a day, and colitis was induced as previously described (Wang et al., [2010]). Rats were anesthetized with ether and then a 5% TNBS (Sigma, St Louis, USA) (100 mg/kg) dissolved in 0.25 mL of 50% ethanol (v/v) (2:1) was administered by a polyethylene catheter introduced rectally to 6–8 cm from the anus. Rats were set in a head-down position for 30 seconds to avoid leakage of the solution (Lu et al., [2017]). Rats were randomly divided into seven groups (n = 8) including the normal control (NC) group, TNBS-colitic (positive control, PC) group, and five TNBS-colitic-treated groups which were orally given sulfasalazine (SSZ, 100 mg/kg/day, a reference treatment for IBD) (Yousefi-Ahmadipour et al., [2020]), low and high doses of OM (OML and OMH: 3.0 and 10.0 mg/kg/day (Nagib et al., [2013])) as a raw drug and as an OMS (OMSL and OMSH). OM was suspended in distilled water containing 0.25% carboxymethyl cellulose (Gorain et al., [2014]; Komesli et al., [2019]). The treatments were given for 7 days starting 4 hours after TNBS administration (Lu et al., [2017]). Rats were evaluated for the colitis activity score. At end of the treatment period, blood was collected, and rats were sacrificed. The colon was excised, cleaned with ice-cold saline, measured for weight and length, and the macroscopic appearance was evaluated. Parts of the colon were homogenized and activities/levels of myeloperoxidase (MPO), tumor necrosis factor-α (TNF-α), interleukin-6 (IL-6), malondialdehyde (MDA), and reduced glutathione (GSH) were measured. The concentrations of olmesartan in plasma and colonic homogenate were measured by high performance liquid chromatography/mass spectrometry (HPLC/MS). Samples of the colon were obtained for hematoxylin and eosin (H&E) and immunohistochemical staining (Joo et al., [2015])). All evaluations were made by blinded observers. […]

[3] = test system: tumor necrosis factor-α (TNF-α); test: Colonic TNF-α (ELISA, colon homogenate); settings: TNBS-colitic rats, 7 days, mean ± SEM, n = 8
Description: as §1, §2

[4] = test system: trinitrobenzene sulfonic acid-induced acute colitis; test: Disease activity score in TNBS-induced acute colitis; settings: TNBS-colitic rats, 7 days, mean ± SEM, n = 8
Description: as §3, with “[2015])).” for “[2015])). All evaluations were made by blinded observers.”
The colitis activity index was measured to evaluate the activity of intestinal inflammation. The scores for weight loss, stool consistency, and fecal blood were calculated to give a disease activity score (DAS) as previously described (Wang et al., [2014]). […]

[5] = test system: trinitrobenzene sulfonic acid-induced acute colitis; test: Colonic histopathological examination (H&E); settings: TNBS-colitic rats, 7 days
Description: as §3, with “[2015])).” for “[2015])). All evaluations were made by blinded observers.”
The colonic parts were fixed in 10% buffered formalin and embedded in paraffin. Sections (3–5 µm) were prepared and stained with H&E. The degree of inflammation was expressed as mild, moderate, or severe (Wirtz et al., [2007]).

[6] = test system: myeloperoxidase (MPO); test: Colonic MPO activity (ELISA, colon homogenate); settings: TNBS-colitic rats, 7 days, mean ± SEM, n = 8
Description: as §1, §2

[7] = test system: E-cadherin; test: Colonic E-cadherin immunostaining; settings: TNBS-colitic rats, 7 days
Description: (§4) The rats were food-deprived for a day, and colitis was induced as previously described (Wang et al., [2010]). Rats were anesthetized with ether and then a 5% TNBS (Sigma, St Louis, USA) (100 mg/kg) dissolved in 0.25 mL of 50% ethanol (v/v) (2:1) was administered by a polyethylene catheter introduced rectally to 6–8 cm from the anus. Rats were set in a head-down position for 30 seconds to avoid leakage of the solution (Lu et al., [2017]). Rats were randomly divided into seven groups (n = 8) including the normal control (NC) group, TNBS-colitic (positive control, PC) group, and five TNBS-colitic-treated groups which were orally given sulfasalazine (SSZ, 100 mg/kg/day, a reference treatment for IBD) (Yousefi-Ahmadipour et al., [2020]), low and high doses of OM (OML and OMH: 3.0 and 10.0 mg/kg/day (Nagib et al., [2013])) as a raw drug and as an OMS (OMSL and OMSH). OM was suspended in distilled water containing 0.25% carboxymethyl cellulose (Gorain et al., [2014]; Komesli et al., [2019]). The treatments were given for 7 days starting 4 hours after TNBS administration (Lu et al., [2017]). Rats were evaluated for the colitis activity score. At end of the treatment period, blood was collected, and rats were sacrificed. The colon was excised, cleaned with ice-cold saline, measured for weight and length, and the macroscopic appearance was evaluated. Parts of the colon were homogenized and activities/levels of myeloperoxidase (MPO), tumor necrosis factor-α (TNF-α), interleukin-6 (IL-6), malondialdehyde (MDA), and reduced glutathione (GSH) were measured. The concentrations of olmesartan in plasma and colonic homogenate were measured by high performance liquid chromatography/mass spectrometry (HPLC/MS). […]
(§5) Colonic sections were immunohistochemically stained for E-cadherin and Caspase-3 (ab13847; Abcam; 1:500 dilution). […] For MMP-9 immunostaining, the sections were probed with rabbit and mouse monoclonal anti-MMP-9 (1:150 dilution), detected with sheep anti-rabbit or anti-mouse IgG fluorescein isothiocyanate (1:500 dilution), and examined under a fluorescent microscope (Baugh et al., [1999]).

[8] = test system: malondialdehyde (MDA); test: Colonic MDA (ELISA, colon homogenate); settings: TNBS-colitic rats, 7 days, mean ± SEM, n = 8
Description: The rats were food-deprived for a day, and colitis was induced as previously described (Wang et al., [2010]). Rats were anesthetized with ether and then a 5% TNBS (Sigma, St Louis, USA) (100 mg/kg) dissolved in 0.25 mL of 50% ethanol (v/v) (2:1) was administered by a polyethylene catheter introduced rectally to 6–8 cm from the anus. Rats were set in a head-down position for 30 seconds to avoid leakage of the solution (Lu et al., [2017]). […] Rats were evaluated for the colitis activity score. […] The colon was excised, cleaned with ice-cold saline, measured for weight and length, and the macroscopic appearance was evaluated. Parts of the colon were homogenized and activities/levels of myeloperoxidase (MPO), tumor necrosis factor-α (TNF-α), interleukin-6 (IL-6), malondialdehyde (MDA), and reduced glutathione (GSH) were measured. The concentrations of olmesartan in plasma and colonic homogenate were measured by high performance liquid chromatography/mass spectrometry (HPLC/MS). […]
The colonic samples were homogenized using phosphate-buffered saline and a TissueLyser II (Qiagen) at 4 °C to yield a 10% homogenate. […] The colonic protein content was determined by using the Bradford method (Bradford, 1976). […]

[9] = test system: matrix metalloproteinase-9 (MMP-9); test: Colonic MMP-9 immunostaining; settings: TNBS-colitic rats, 7 days
Description: as §4, §5

[10] = test system: caspase-3; test: Colonic caspase-3 immunostaining; settings: TNBS-colitic rats, 7 days
Description: as §4, §5

[11] = test system: reduced glutathione (GSH); test: Colonic GSH (ELISA, colon homogenate); settings: TNBS-colitic rats, 7 days, mean ± SEM, n = 8
Description: as §1, §2

[12] = test system: trinitrobenzene sulfonic acid-induced acute colitis; test: Colonic macroscopic examination and colon weight/length ratio in TNBS-induced acute colitis; settings: TNBS-colitic rats, 7 days; for Colon weight/length ratio: mean ± SEM, n = 8
Description: The rats were food-deprived for a day, and colitis was induced as previously described (Wang et al., [2010]). Rats were anesthetized with ether and then a 5% TNBS (Sigma, St Louis, USA) (100 mg/kg) dissolved in 0.25 mL of 50% ethanol (v/v) (2:1) was administered by a polyethylene catheter introduced rectally to 6–8 cm from the anus. Rats were set in a head-down position for 30 seconds to avoid leakage of the solution (Lu et al., [2017]). Rats were randomly divided into seven groups (n = 8) including the normal control (NC) group, TNBS-colitic (positive control, PC) group, and five TNBS-colitic-treated groups which were orally given sulfasalazine (SSZ, 100 mg/kg/day, a reference treatment for IBD) (Yousefi-Ahmadipour et al., [2020]), low and high doses of OM (OML and OMH: 3.0 and 10.0 mg/kg/day (Nagib et al., [2013])) as a raw drug and as an OMS (OMSL and OMSH). OM was suspended in distilled water containing 0.25% carboxymethyl cellulose (Gorain et al., [2014]; Komesli et al., [2019]). The treatments were given for 7 days starting 4 hours after TNBS administration (Lu et al., [2017]). Rats were evaluated for the colitis activity score. At end of the treatment period, blood was collected, and rats were sacrificed. The colon was excised, cleaned with ice-cold saline, measured for weight and length, and the macroscopic appearance was evaluated. Parts of the colon were homogenized and activities/levels of myeloperoxidase (MPO), tumor necrosis factor-α (TNF-α), interleukin-6 (IL-6), malondialdehyde (MDA), and reduced glutathione (GSH) were measured. The concentrations of olmesartan in plasma and colonic homogenate were measured by high performance liquid chromatography/mass spectrometry (HPLC/MS). Samples of the colon were obtained for hematoxylin and eosin (H&E) and immunohistochemical staining (Joo et al., [2015])). All evaluations were made by blinded observers.
The colon was measured for weight and length. The degree of colonic damage regarding edema, ulceration, bleeding, and necrosis was expressed as mild, moderate, or severe (Ghia et al., [2006]).

[13] = high dose 10.0 mg/kg/day orally

With `CCCc1nc(C(C)(C)O)c(C(=O)OCc2oc(=O)oc2C)n1Cc1ccc(-c2ccccc2-c2nnn[nH]2)cc1` [OM, Olmesartan medoxomil] the IL-6 [1, 13] was 122.43 ± 4.29 # pg/mg protein, the IL-6 ([1]; low dose 3.0 mg/kg/day orally) was 160.57 ± 5.73 ^ pg/mg protein and the “protein expression of colonic E-cadherin, Bax, Bcl-2, cleaved caspase-3 and Bcl-2/Bax ratio (Western blot)” value [2, 13] was “moderate improvements”. The “protein expression of colonic E-cadherin, Bax, Bcl-2, cleaved caspase-3 and Bcl-2/Bax ratio (Western blot)” value ([2]; low dose 3.0 mg/kg/day orally) was “mild improvement”, the TNF-α [3, 13] was 51.45 ± 2.47 # pg/mg protein and the TNF-α ([3]; low dose 3.0 mg/kg/day orally) was 69.98 ± 3.50 ^ pg/mg protein. The Disease activity score [4, 13] was 3.01 ± 0.25 #, the Disease activity score ([4]; low dose 3.0 mg/kg/day orally) was 5.69 ± 0.26 ^ and the “colonic histopathological damage (H&E)” value [5, 13] was “moderate improvement”. For the same compound, the “colonic histopathological damage (H&E)” value ([5]; low dose 3.0 mg/kg/day orally) was “mild improvement”, the MPO activity [6, 13] was 14.52 ± 0.61 # U/mg protein and the MPO activity ([6]; low dose 3.0 mg/kg/day orally) was 20.90 ± 1.06 ^ U/mg protein. For the same compound, the “colonic E-cadherin expression (immunostaining)” value [7, 13] was “moderate improvement”, the “colonic E-cadherin expression (immunostaining)” value ([7]; low dose 3.0 mg/kg/day orally) was “mild improvement” and the MDA [8, 13] was 149.57 ± 2.26 # nmol/mg protein. The MDA ([8]; low dose 3.0 mg/kg/day orally) was 221.25 ± 6.23 ^ nmol/mg protein, the “colonic MMP-9 overexpression (immunostaining)” value [9, 13] was “moderate improvement” and the “colonic MMP-9 overexpression (immunostaining)” value ([9]; low dose 3.0 mg/kg/day orally) was “mild improvement”. The “colonic caspase-3 expression (immunostaining)” value [10, 13] was “moderate improvement”, the “colonic caspase-3 expression (immunostaining)” value ([10]; low dose 3.0 mg/kg/day orally) was “mild improvement” and the GSH [11, 13] was 29.03 ± 1.44 # nmol/mg protein. For the same compound, the GSH ([11]; low dose 3.0 mg/kg/day orally) was 19.77 ± 0.55 ^ nmol/mg protein, the “colonic macroscopic appearance (damage)” value [12, 13] was “moderate improvement” and the Colon weight/length ratio [12, 13] was 121.50 ± 6.91 # mg/cm. The “colonic macroscopic appearance (damage)” value ([12]; low dose 3.0 mg/kg/day orally) was “mild improvement” and the Colon weight/length ratio ([12]; low dose 3.0 mg/kg/day orally) was 176.63 ± 3.49 ^ mg/cm.

— paper PMC9246205, “Olmesartan medoxomil self-microemulsifying drug delivery system reverses apoptosis and improves cell adhesion in trinitrobenzene sulfonic acid-induced colitis in rats” (Drug Delivery, 2022)
